Results as given in PMC9103439, “Cyclo(His-Pro) Exerts Protective Carbonyl Quenching Effects through Its Open Histidine Containing Dipeptides” (Nutrients, 2022).
Counter-ions that a name gives are not always drawn.

Key:
[1] = Quenching activity towards HNE (residual HNE by HPLC-UV); details: for HNE Quenching (%) 1 h: percentage of quenched HNE at 1 h; for HNE Quenching (%) 2 h: percentage of quenched HNE at 2 h; for HNE Quenching (%) 3 h: percentage of quenched HNE at 3 h
Procedure: The reactivity towards HNE was tested for each peptide separately, by monitoring within 3 h from the incubation the residual HNE via HPLC-UV, as previously reported. Minor modifications of the method were implemented. A Kinetex C18 column (25 mm × 2.10 mm, particle size 2.6 µm, pore size 100 Å, Phenomenex, Castel Maggiore, Italy) was used instead and the elution of residual HNE was provided at 40 °C by 300 µL/min flow rate of aqueous ammonium acetate (10 mM) containing 20% acetonitrile. For active compounds, the formation of HNE adduct was confirmed by mass spectrometry. Samples were diluted in ACN/H2O/formic acid, 50/50/0.1, v/v/v solution down to a suitable concentration and pumped at 5 µL/min directly into ESI capillary (Finnigan Ion Max, Thermo Fisher Scientific, Rodano, Italy) and 3.5 kV voltage, 270 °C capillary temperature, 35 V capillary voltage and 50 V tube lens were applied to ensure sample nebulization. Spectra were acquired in positive ion mode for 5 × 10^5 ions per scan, by using a LTQ-Orbitrap XL-ETD analyzer (Thermo Fisher Scientific, Rodano, Italy) operating in a 150–700 m/z scan range at a resolution of (FWHM at m/z 400).

[2] = Serum stability (LC-MS, MRM); format: in vitro ADME, human; details: 37 °C; for half-life at 5 µM: human, read-out: Serum Stability t1/2
Procedure: (§1) Serum stability was measured as previously described. Briefly, analytes were spiked separately in pre-heated (37 °C) serum aliquots down to a final concentration of 5 µM. The residual concentration of analyte was measured at the beginning and after 5, 15, 30, 60 and 120 min by means of LC-MS. Prior to analyses, hydrolysis was blocked at the desired time points diluting with 9 volumes of acetonitrile at 4 °C to provide protein precipitation. The analyte residual concentration was then measured in the supernatants obtained upon centrifugation. The same method was also used to evaluate the inhibition effect of CHP by incubating serum samples with equimolar amounts of carnosine and CHP.

[3] = parameters: method as in PMID 1424308; details: cited from earlier work
[4] = molecular target: T1, human serum carnosinase (hCN1) (Homo sapiens, UniProt Q96KN2); test: Inhibition effect of CHP on serum carnosinase (carnosine hydrolysis in serum); format: biochemical; details: serum incubated with equimolar carnosine and CHP; decrease not statistically significant
T1 construct: from tissue; host or cells: serum
T1 sequence (Q96KN2 26-507): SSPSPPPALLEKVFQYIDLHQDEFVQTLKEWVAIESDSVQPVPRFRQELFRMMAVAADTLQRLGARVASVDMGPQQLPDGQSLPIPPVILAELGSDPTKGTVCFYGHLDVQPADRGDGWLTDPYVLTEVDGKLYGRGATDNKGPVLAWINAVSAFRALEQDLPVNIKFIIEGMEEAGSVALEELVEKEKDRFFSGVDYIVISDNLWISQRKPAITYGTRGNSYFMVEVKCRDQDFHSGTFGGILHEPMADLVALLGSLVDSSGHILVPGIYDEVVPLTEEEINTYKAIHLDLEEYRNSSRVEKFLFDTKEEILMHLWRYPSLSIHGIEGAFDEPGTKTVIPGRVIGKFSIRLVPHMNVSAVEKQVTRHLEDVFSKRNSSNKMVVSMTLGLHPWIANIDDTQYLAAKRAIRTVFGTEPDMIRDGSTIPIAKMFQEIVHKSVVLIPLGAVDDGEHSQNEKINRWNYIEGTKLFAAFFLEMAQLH
Procedure: as §1

half-life at 5 µM [2] [min]	Serum Stability t1/2 (min) ([2]; 5 µM)	retained carnosine hydrolytic activity [4] [%]	Structure (SMILES)	HNE Quenching (%) 1 h [1] [%]	HNE Quenching (%) 2 h [1] [%]	HNE Quenching (%) 3 h [1] [%]	half-life in vivo [3] [min]
33.4			O=C(O)C(Cc1c[nH]cn1)NC(=O)C1CCCN1 [ProHis, L-Pro-L-His-OH dihydrochloride]	20.39 ± 1.14	36.94 ± 0.80	49.87 ± 1.06	
1.17			NCCC(=O)N[C@@H](Cc1cnc[nH]1)C(=O)O [L-carnosine, reference compound]	17.04 ± 6.17	29.05 ± 4.33	40.40 ±3.73	
3.08			NC(Cc1cnc[nH]1)C(=O)N1CCCC1C(=O)O (centres unmarked) [HisPro, His-Pro]	−0.33 ± 0.45	−0.26 ± 0.53	3.54 ± 1.66	

The remaining lines, values behind:

Structure (SMILES)	half-life at 5 µM [2] [min]	Serum Stability t1/2 (min) ([2]; 5 µM)	retained carnosine hydrolytic activity [4] [%]	HNE Quenching (%) 1 h [1] [%]	HNE Quenching (%) 2 h [1] [%]	HNE Quenching (%) 3 h [1] [%]	half-life in vivo [3] [min]
NC(=O)[C@@H]1CCCN1C(=O)[C@H](Cc1cnc[nH]1)NC(=O)[C@@H]1CCC(=O)N1 [TRH, thyrotropin-releasing hormone, reference compound]	24.4			2.31 ± 6.72	4.16 ± 6.16	6.17 ± 6.41	6.5
NC(=O)C(Cc1c[nH]cn1)NC(=O)C1CCCN1 [ProHis-NH2, L-Pro-L-His-NH2]	128			17.08 ± 1.11	27.66 ± 0.58	36.29 ± 1.08	
O=C1NC(Cc2cnc[nH]2)C(=O)N2CCCC12 (centres unmarked) [CHP, Cyclo(His-Pro)]		Stable	85 ± 5	2.42 ± 0.71	5.46 ± 0.78	8.09 ± 0.77	
